Publication PMC5564600 (Oncotarget, 2017)

What was measured:
Assay in all cases: biochemical
Format in all cases: binding
panel of 442 kinases [1] = molecular target: T1, panel of 442 kinases (Homo sapiens, UniProt P08069); conditions: kinase IGF1R; for remaining activity at 1 µM: read-out: % of control at 1 µM
T1 construct: purchased Ambit Biosciences (scanMAXX KINOMEscan)

panel of 442 kinases [2] = molecular target: T2, panel of 442 kinases (Homo sapiens, UniProt P12931); conditions: kinase SRC; for remaining activity at 1 µM: read-out: SRC (% of control at 1 µM)
T2 construct: purchased Ambit Biosciences (scanMAXX KINOMEscan)

panel of 442 kinases [3] = molecular target: T3, panel of 442 kinases (Homo sapiens, UniProt P45985); conditions: kinase MEK4; for remaining activity at 1 µM: read-out: % of control at 1 µM
T3 construct: purchased Ambit Biosciences (scanMAXX KINOMEscan)
T3 sequence (P45985 1-399): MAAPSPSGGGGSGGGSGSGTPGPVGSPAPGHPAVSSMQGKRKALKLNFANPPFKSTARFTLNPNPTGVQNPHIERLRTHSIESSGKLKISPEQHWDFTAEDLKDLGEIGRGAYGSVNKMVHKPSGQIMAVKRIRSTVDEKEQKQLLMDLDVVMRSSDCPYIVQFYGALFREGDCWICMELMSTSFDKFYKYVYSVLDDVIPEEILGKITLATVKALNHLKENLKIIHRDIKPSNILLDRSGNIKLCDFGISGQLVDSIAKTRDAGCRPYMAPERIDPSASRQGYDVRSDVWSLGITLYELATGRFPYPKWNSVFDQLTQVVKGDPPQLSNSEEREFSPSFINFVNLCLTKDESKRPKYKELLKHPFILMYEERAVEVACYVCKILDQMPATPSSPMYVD

panel of 442 kinases [4] = molecular target: T4, panel of 442 kinases (Homo sapiens, UniProt Q06187); conditions: BTK; for remaining activity at 1 µM: read-out: % of control at 1 µM
T4 construct: purchased Ambit Biosciences (scanMAXX KINOMEscan)

panel of 442 kinases [5] = molecular target: T5, panel of 442 kinases (Homo sapiens, UniProt Q56UN5); conditions: kinase YSK4; for remaining activity at 1 µM: read-out: YSK4 (% of control at 1 µM)
T5 construct: purchased Ambit Biosciences (scanMAXX KINOMEscan)
T5 sequence (Q56UN5 1-1328): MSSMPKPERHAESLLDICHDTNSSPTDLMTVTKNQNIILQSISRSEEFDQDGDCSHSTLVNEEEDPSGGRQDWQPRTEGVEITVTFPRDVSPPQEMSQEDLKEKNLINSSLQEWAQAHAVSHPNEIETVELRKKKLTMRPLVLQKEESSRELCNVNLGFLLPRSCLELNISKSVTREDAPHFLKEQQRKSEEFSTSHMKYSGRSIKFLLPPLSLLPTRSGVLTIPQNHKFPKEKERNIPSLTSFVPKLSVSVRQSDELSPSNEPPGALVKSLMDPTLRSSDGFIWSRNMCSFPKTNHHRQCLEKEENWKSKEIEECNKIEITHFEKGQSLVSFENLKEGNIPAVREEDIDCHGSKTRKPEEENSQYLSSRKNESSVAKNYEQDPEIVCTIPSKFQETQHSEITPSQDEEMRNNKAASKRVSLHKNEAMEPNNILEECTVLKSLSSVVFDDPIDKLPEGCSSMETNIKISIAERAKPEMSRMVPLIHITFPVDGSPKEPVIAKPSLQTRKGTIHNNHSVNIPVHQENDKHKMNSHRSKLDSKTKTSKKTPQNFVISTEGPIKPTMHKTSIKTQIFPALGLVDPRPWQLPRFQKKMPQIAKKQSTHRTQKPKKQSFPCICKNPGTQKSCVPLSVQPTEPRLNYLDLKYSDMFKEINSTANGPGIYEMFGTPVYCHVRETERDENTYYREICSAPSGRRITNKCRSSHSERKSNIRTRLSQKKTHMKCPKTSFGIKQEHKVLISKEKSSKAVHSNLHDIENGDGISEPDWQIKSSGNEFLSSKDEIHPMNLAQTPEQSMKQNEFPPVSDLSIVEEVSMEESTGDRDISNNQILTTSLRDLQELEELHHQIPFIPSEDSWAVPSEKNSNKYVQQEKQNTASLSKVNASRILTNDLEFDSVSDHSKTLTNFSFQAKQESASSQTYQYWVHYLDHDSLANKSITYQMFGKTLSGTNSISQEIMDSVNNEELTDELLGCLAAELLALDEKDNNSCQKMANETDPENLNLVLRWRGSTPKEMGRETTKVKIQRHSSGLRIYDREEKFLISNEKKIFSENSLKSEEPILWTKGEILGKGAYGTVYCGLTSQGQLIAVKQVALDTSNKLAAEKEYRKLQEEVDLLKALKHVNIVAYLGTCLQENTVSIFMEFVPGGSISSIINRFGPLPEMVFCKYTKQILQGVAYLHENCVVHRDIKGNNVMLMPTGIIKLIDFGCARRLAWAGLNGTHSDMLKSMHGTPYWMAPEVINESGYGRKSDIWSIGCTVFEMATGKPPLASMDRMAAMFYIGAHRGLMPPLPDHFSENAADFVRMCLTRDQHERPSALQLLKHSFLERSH

panel of 442 kinases [6] = molecular target: T6, panel of 442 kinases (Homo sapiens, UniProt Q8TDC3); conditions: BRSK1; for remaining activity at 1 µM: read-out: % of control at 1 µM
T6 construct: purchased Ambit Biosciences (scanMAXX KINOMEscan)
T6 sequence (Q8TDC3 1-778): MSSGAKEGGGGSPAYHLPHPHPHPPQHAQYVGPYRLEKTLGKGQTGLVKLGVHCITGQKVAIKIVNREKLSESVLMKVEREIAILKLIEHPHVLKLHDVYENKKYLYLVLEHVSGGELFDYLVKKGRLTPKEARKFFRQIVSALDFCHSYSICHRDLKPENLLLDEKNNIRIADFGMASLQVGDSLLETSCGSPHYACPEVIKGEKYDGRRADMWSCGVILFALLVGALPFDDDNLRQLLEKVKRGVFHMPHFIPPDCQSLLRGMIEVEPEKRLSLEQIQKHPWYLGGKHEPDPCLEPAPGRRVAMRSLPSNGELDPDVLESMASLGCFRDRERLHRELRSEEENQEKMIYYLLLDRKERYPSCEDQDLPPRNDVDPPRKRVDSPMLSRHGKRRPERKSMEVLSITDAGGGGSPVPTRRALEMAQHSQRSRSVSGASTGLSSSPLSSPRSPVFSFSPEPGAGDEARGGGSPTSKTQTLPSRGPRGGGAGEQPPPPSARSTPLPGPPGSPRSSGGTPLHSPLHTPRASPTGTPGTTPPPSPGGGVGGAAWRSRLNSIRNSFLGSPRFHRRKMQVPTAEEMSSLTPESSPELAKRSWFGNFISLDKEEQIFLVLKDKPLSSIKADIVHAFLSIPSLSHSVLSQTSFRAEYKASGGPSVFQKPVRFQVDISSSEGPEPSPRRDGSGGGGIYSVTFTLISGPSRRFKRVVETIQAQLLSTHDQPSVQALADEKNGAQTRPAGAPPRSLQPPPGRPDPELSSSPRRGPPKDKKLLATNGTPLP

[7] = 10 µM, read-out: % of control at 10 µM

T2 sequence (P12931 whole entry): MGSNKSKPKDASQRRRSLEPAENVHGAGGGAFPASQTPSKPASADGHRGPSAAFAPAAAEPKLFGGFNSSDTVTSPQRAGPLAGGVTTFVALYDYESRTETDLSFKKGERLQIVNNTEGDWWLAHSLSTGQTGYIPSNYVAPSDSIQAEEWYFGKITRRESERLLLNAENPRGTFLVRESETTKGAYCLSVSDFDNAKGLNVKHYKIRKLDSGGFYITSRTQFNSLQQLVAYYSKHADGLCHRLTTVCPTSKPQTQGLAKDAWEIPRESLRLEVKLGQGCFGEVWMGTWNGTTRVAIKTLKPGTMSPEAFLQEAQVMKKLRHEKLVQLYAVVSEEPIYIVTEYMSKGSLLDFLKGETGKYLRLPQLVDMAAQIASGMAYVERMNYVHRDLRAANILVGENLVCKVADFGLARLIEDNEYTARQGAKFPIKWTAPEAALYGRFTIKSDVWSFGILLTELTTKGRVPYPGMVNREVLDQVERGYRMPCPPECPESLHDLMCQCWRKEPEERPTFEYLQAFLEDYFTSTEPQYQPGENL
T1 sequence (P08069 31-1367): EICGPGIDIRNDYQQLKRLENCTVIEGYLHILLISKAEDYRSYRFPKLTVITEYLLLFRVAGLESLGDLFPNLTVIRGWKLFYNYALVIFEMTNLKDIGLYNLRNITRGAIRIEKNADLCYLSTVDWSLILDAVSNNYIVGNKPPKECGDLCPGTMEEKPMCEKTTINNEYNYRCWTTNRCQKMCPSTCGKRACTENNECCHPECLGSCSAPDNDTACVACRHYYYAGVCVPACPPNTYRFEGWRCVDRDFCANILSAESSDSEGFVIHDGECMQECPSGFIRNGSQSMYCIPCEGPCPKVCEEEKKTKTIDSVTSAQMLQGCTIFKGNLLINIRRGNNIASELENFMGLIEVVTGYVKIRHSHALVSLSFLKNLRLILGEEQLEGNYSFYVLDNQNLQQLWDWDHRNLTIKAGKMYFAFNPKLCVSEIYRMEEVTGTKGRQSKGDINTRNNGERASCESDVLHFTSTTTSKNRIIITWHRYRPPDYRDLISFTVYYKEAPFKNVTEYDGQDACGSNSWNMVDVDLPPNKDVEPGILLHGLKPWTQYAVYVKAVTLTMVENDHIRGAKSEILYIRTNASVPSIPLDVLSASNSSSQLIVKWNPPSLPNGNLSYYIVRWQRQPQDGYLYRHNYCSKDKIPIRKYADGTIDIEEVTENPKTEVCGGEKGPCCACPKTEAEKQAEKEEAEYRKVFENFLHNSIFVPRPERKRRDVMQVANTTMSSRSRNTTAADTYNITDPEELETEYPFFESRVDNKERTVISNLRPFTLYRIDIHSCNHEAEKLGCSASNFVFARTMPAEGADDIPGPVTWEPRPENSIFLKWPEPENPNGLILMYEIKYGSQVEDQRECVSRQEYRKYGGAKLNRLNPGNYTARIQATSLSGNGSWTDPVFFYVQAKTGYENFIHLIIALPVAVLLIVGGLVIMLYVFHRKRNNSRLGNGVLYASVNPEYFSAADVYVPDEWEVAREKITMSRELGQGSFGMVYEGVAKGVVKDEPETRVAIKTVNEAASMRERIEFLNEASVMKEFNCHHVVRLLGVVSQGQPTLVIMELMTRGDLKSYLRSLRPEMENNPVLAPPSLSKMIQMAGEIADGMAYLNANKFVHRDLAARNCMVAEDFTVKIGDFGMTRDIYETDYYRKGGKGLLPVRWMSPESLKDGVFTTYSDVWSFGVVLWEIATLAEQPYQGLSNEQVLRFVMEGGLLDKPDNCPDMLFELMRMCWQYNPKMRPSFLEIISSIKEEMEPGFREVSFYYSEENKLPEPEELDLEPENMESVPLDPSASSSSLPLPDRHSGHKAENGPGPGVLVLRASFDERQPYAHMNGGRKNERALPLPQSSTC
T4 sequence (Q06187 whole entry): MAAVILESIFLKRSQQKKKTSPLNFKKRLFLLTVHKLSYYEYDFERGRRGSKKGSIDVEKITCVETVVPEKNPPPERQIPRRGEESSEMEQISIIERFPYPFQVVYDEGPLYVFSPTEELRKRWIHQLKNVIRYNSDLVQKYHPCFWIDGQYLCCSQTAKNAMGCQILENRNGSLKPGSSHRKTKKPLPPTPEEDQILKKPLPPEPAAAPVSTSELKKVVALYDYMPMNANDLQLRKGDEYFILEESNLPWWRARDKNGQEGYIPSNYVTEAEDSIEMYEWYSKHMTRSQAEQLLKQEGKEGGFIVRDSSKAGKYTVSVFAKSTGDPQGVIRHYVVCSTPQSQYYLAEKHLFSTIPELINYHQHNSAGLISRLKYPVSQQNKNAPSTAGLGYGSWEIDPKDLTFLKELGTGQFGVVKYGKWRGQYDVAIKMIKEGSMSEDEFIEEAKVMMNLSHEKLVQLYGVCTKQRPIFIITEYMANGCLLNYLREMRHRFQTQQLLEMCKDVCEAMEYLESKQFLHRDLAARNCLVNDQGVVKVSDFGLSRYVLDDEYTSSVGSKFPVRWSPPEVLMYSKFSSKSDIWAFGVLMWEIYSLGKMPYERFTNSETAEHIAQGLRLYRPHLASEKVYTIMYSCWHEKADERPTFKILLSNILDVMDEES

| Compound | remaining activity at 1 µM (panel of 442 kinases [1]) | remaining activity at 10 µM (panel of 442 kinases [1]; [7]) | remaining activity at 1 µM (panel of 442 kinases [2]) | remaining activity at 10 µM (panel of 442 kinases [2]; 10 µM, read-out: SRC (% of control at 10 µM)) | remaining activity at 1 µM (panel of 442 kinases [3]) | remaining activity at 10 µM (panel of 442 kinases [3]; [7]) | remaining activity at 1 µM (panel of 442 kinases [4]) | remaining activity at 10 µM (panel of 442 kinases [4]; [7]) | remaining activity at 1 µM (panel of 442 kinases [5]) | remaining activity at 10 µM (panel of 442 kinases [5]; 10 µM, read-out: YSK4 (% of control at 10 µM)) | remaining activity at 1 µM (panel of 442 kinases [6]) | remaining activity at 10 µM (panel of 442 kinases [6]; [7]) |
| --- | --- | --- | --- | --- | --- | --- | --- | --- | --- | --- | --- | --- |
| Nc1cc(C(F)(F)F)c(-c2cc(N3CCOCC3)nc(N3CCOCC3)n2)cn1 [Buparlisib] | 100% | 100% | 94% | 100% | 100% | 100% | 71% | 89% | 72% | 78% | 100% | 100% |
| COc1ncc(-c2ccc3nccc(-c4ccnnc4)c3c2)cc1NS(=O)(=O)c1ccc(F)cc1F [Omipalisib] | 100% | – | 100% | – | 48% | – | 100% | – | 77% | – | 100% | – |
| FC(F)c1nc2ccccc2n1-c1nc(N2CCOCC2)nc(N2CCOCC2)n1 [ZSTK474, 2-(difluoromethyl)-1-[4,6-di(4-morpholinyl)-1,3,5-triazin-2-yl]-1H-benzimidazole] | 100% | – | 100% | – | 63% | – | 100% | – | 100% | – | 98% | – |
| Cn1c(=O)n(-c2ccc(C(C)(C)C#N)cc2)c2c3cc(-c4cnc5ccccc5c4)ccc3ncc21 [Dactolisib, 2-methyl-2-[4-(3-methyl-2-oxo-8-quinolin-3-yl-2,3-dihydroimidazo[4,5-c]quinolin-1-yl)-phenyl] propionitrile] | 95% | – | 94% | – | 83% | – | – | – | 28% | – | 83% | – |
